Experimental data from patent publication US5856506A, “Phosphatase inhibitors and methods of use thereof” (University of Pittsburgh, priority 1997, dated 1999).

Columns and labels:
[1] = molecular target: PP2A (Bos taurus, UniProt P67774); experiment: Phosphatase activity by [32P] release from phosphorylase-a or phosphohistone (Honkanen method); format: biochemical; details: 100 μM inhibitor; none = 100; read-out: PP2A, percent inhibition relative to control (100%)
Protocol: (§1) It has been found in accordance with the present invention that compounds of formula I are capable of inhibiting serine/threonine protein phosphatases. Inhibition of serine/threonine protein phosphatases is defined herein as inhibition of the activity of one or more of PP1, PP2A or PP3 at a concentration of 100 μM or less of the inhibitor compound. In a preferred embodiment, the activity of the phosphatase is inhibited by at least 10%. In more preferred embodiments, the activity of the phophatase is inhibited by at least 25%, or even more preferably, by at least 50%. Inhibition of PP1, PP2A or PP3 can be assessed by methods known to one of ordinary skill in the art. Suitable assays are described, for example by Honkanen et al. (1994) Toxicon 32:339 and Honkanen et al. (1990) J. Biol. Chem. 265: 19401, the disclosures of which are incorporated herein by reference. Briefly, phosphatase activity is determined by quantifying the [^32 p] released from a ^32 p-labeled substrate such as phosphohistone or phosphorylase-a. Decreased [^32 p] release in the presence of the compounds of the present invention relative to control samples provides a measure of the ability of the compounds of the invention to inhibit PP1, PP2A or PP3.
(§2) Phosphatase activity and the inhibitory activity of the compounds of Table 1 were determined by the method of Honkanen et al. (1994) Toxicon 32:339. Briefly, phosphatase activity against phosphorylase-a or phosphohistone was 25 determined by the quantification of liberated [^32 p]. Assays, 80 μl total volume, containing 50 mM Tris-HCl, pH 7.4, 0.5 mM DTT, 1 mM EDTA (assay buffer) and [^32 p]phosphoprotein (1-2 μM PO4), were conducted as described previously (Honkanen et al., 1991 Mol. Pharmac. 40:577). Dephosphorylation reactions were routinely conducted for 5-10 min. using phosphorylase-a as a substrate and for 10-20 min. using phosphohistone. In all assays the dephosphorylation of substrate was kept to less than 10% of the total phosphorylated substrate available, and the reactions were adjusted to ensure that enzyme activity was linear with respect to enzyme concentration and time. [^32 p]Phosphate liberated by the enzymes was extracted as a phosphomolybdate complex and measured according to the methods of Killilea et al. (1978) Arch. Biochem. Biophys. 191:638. Inhibition of protein phosphatase activity by inhibitors was determined by adding the 100 μM of inhibitors to the enzyme mixture 5-10 min. prior to initiating the reaction with the addition of substrate.

[2] = test system: PP1; experiment: as above; format: biochemical; details: 100 μM inhibitor; none = 100
Protocol: as §1, §2

[3] = test system: PP3; experiment: as above; format: biochemical; details: 100 μM inhibitor; none = 100
Protocol: as §1, §2

[4] = test system: MDA-MB-231 cells; experiment: Cell cycle distribution by flow cytometry (propidium iodide); format: cell-based, human; details: for cell cycle distribution: 88 μM, MDA-MB-231
Text: FIGS. 10A-D depict cell cycle distribution of human breast cancer cells after treatment with compound 1f determined by flow cytometry. […] Fluorescence channel measures intracellular propidium iodide concentration, an index of DNA content. Horizontal bars are the gating positions that allow for cell cycle analysis. […] Open bars are control cells and black bars are cells treated with compound 1f. […] The mean values were obtained from three independent determinations. Open bars are control cells and black bars are cells treated with 88 μM compound 1f.
MDA-MB-231 cells (6.5×10^5 /cm^2) were plated and incubated at 37° C. for 48 h. The plating medium was then aspirated off, and medium containing a concentration of compound 1f that caused approximately 50% growth inhibition (88-100 μM) was added for 48 to 72 h. Untreated cells at a similar cell density were used as control populations. Single cell preparations were fixed in ice-cold 1% paraformaldehyde, centrifuged at 1,000×g for 5 min, resuspended in Puck's saline, centrifuged, and resuspended in ice-cold 70% ethanol overnight. The cells were removed from fixatives by centrifugation (1,000×g for 5 min) and stained with a 5 μg/mL propidium iodide and 50 μg/mL RNase A solution. Flow cytometry analyses were conducted with a Becton Dickinson FACS Star. Single parameter DNA histograms were collected for 10,000 cells, and cell cycle kinetic parameters calculated using DNA cell cycle analysis software version C (Becton Dickinson). Experiments at 72 h were performed at least 3 independent times.

PP2A, sequence (P67774 whole entry): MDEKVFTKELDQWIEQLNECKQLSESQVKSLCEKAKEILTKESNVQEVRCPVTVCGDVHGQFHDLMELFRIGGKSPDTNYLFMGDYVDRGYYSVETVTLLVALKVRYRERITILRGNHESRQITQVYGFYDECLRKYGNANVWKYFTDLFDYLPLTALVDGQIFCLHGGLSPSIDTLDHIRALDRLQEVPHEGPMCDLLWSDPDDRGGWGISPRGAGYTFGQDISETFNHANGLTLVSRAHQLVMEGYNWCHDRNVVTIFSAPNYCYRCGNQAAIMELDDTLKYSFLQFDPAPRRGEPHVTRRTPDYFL

Q: With `CCCCCCCCCC(=O)NC(CCC(=O)N(CCNC(=O)c1nc(-c2ccccc2)oc1-c1ccccc1)Cc1ccccc1)C(=O)O` (stereo not drawn) [Compound 1f] as the compound, how does the PP2A remaining activity, % of control at 100 µM [1] read?
A: Its PP2A remaining activity, % of control at 100 µM is 156%.

Q: What about the “PP1 remaining activity, percent of control” value [2] of the same compound?
A: The value was 117%.

Q: What about the “PP3 remaining activity, percent of control” value [3] of the same compound?
A: The value was 85%.

Q: And the cell cycle distribution ([4]; 48 h)?
A: The cell cycle distribution was “prominent accumulation in the Gi phase with a concomitant decrease in both S and G2/M phases”.

Q: And the cell cycle distribution ([4]; 72 h)?
A: Its cell cycle distribution is “prominent accumulation in the G1 phase”.

Q: What about the “site of blockage in cell cycle progression” value ([4]; MDA-MB-231, conclusion) of the same compound?
A: The value was “blockage in cell cycle progression is at the G1 checkpoint”.
